Experimental data reported in patent publication US7585895B2, “Therapeutic substituted cyclopentanes” (Allergan, Inc., priority 2005, dated 2009).

Key:
hEP4/Gqs5 = molecular target: T1, hEP4/Gqs5 (Homo sapiens, UniProt P35408); test: FLIPR calcium signal, EP4; format: cell-based; settings: HEK-293(EBNA); for EC50: read-out: Ca2+ Signal-EC50 (nM) EP4
T1 construct: expressed in transfected cells
Procedure: (§1) HEK-293(EBNA) cells, stably expressing one type or subtype of recombinant human prostaglandin receptors (prostaglandin receptors expressed: hDP/Gqs5; hEP1; hEP2/Gqs5; hEP3A/Gqi5; hEP4/Gqs5; hFP; hIP; hTP), were cultured in 100 mm culture dishes in high-glucose DMEM medium containing 10% fetal bovine serum, 2 mM 1-glutamine, 250 μg/ml geneticin (G418) and 200 μg/ml hygromycin B as selection markers, and 100 units/ml penicillin G, 100 μg/ml streptomycin and 0.25 μg/ml amphotericin B.
(§2) Cells were seeded at a density of 5×10^4 cells per well in Biocoat® Poly-D-lysine-coated black-wall, clear-bottom 96-well plates (Becton-Dickinson) and allowed to attach overnight in an incubator at 37° C. Cells were then washed two times with HBSS-HEPES buffer (Hanks Balanced Salt Solution without bicarbonate and phenol red, 20 mM HEPES, pH 7.4) using a Denley Cellwash plate washer (Labsystems). After 45 minutes of dye-loading in the dark, using the calcium-sensitive dye Fluo-4 AM at a final concentration of 2 μM, plates were washed four times with HBSS-HEPES buffer to remove excess dye leaving 100 μl in each well. Plates were re-equilibrated to 37° C. for a few minutes.
(§3) Cells were excited with an Argon laser at 488 nm, and emission was measured through a 510-570 nm bandwidth emission filter (FLIPR™, Molecular Devices, Sunnyvale, Calif.). Drug solution was added in a 50 μl volume to each well to give the desired final concentration. The peak increase in fluorescence intensity was recorded for each well. On each plate, four wells each served as negative (HBSS-HEPES buffer) and positive controls (standard agonists: BW245C (hDP); PGE2 (HEP1; hEP2/Gqs5; hEP3A/Gqi5; hEP4/Gqs5); PGF2α (hFP); carbacyclin (hIP); U-46619 (hTP), depending on receptor). The peak fluorescence change in each drug-containing well was then expressed relative to the controls.
(§4) Compounds were tested in a high-throughput (HTS) or concentration-response (CoRe) format. In the HTS format, forty-four compounds per plate were examined in duplicates at a concentration of 10^−5 M. To generate concentration-response curves, four compounds per plate were tested in duplicates in a concentration range between 10^−5 and 10^−11 M. The duplicate values were averaged. In either, HTS or CoRe format each compound was tested on at least 3 separate plates using cells from different passages to give an n≧3.

EP2 = EP2 (Homo sapiens, UniProt P43116); test: cAMP assay, HEK-EBNA cells expressing EP2; format: cell-based; design: expressed in transfected cells; host or cells: HEK-EBNA; settings: value in parentheses in EP2 column, read-out: EP2 EC50 (nM), measurement of cAMP (data in parentheses)
Chain of EP2 (P43116 whole entry): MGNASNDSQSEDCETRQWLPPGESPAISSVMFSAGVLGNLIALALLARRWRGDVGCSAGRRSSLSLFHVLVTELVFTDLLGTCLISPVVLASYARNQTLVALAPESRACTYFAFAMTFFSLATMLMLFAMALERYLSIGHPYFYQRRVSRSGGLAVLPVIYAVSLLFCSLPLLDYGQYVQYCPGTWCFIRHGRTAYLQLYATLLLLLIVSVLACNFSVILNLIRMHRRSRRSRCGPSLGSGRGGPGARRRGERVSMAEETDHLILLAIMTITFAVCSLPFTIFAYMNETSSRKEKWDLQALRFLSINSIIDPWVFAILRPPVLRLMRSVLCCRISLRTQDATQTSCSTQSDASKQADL
Procedure: A 384-well drug plate was prepared to contain 6 test compounds, PGE2 and cAMP in 16 serial dilutions in triplicate, using a Biomek station. HEK-EBNA cells expressing a target PG receptor subtype (EP2 or EP4) were suspended in a stimulation buffer (HBSS, 0.1% BSA, 0.5 mM IBMX and 5 mM HEPES, pH 7.4) in a density of 10^4 cells/5 μl. The reaction was initiated by mixing 5 μL drug dilutions with 5 μl of HEK-EBNA cells in a well, carried out for 30 min at room temperature, and followed by the addition of 5 μl anti-cAMP acceptor beads in the control buffer with Tween-20 (25 mM NaCl, 0.03% Tween-20, 5 mM HEPES, pH7.4). After 30 min in the dark at room temperature, the mixtures were incubated with 15 μl biotinylated-cAMP/strepavidin donor beads in Lysis/Detection buffer (0.1% BSA, 0.3% Tween-20 and 5 mM HEPES, pH7.4) for 45 min at the room temperature. Fluorescence changes were read using a Fusion-alpha HT microplate reader.

EP4 receptors = molecular target: T2, EP4 receptors (Homo sapiens, UniProt P35408); test: Radioligand binding, [3H]PGE2, EP4 (Ki); settings: HEK-293 cells stably expressing EP4, [3H]PGE2
T2 construct: expressed in transfected cells; membrane pellet
T2 sequence (P35408 whole entry): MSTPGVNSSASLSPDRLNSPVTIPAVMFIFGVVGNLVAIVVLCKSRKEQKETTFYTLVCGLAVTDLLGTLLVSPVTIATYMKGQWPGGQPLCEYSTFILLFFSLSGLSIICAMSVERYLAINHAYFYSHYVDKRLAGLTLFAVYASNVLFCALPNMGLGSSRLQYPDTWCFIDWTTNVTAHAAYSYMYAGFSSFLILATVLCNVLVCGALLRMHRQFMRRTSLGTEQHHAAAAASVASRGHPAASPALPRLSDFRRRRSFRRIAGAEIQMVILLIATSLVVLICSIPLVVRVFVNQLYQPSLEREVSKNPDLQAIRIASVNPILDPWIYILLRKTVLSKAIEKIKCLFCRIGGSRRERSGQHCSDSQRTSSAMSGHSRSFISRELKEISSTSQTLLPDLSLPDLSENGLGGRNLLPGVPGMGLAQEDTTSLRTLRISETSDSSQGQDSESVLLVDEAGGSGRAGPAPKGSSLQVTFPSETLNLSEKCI
Procedure: HEK-293 cells stably expressing the human or feline FP receptor, or EP1, EP2, or EP4 receptors were washed with TME buffer, scraped from the bottom of the flasks, and homogenized for 30 sec using a Brinkman PT 10/35 polytron. TME buffer was added to achieve a final 40 ml volume in the centrifuge tubes (the composition of TME is 100 mM TRIS base, 20 mM MgCl2, […]; 10N HCl is added to achieve a pH of 7.4).
The cell homogenate was centrifuged at 19000 r.p.m. for 20 min at 4° C using a Beckman Ti-60 rotor. The resultant pellet was resuspended in TME buffer to give a final 1 mg/ml protein concentration, as determined by Biorad assay. Radioligand binding competition assays vs. [^3H-]17-phenyl PGF2α. (5 nM) were performed in a 100 μl volume for 60 min. Binding reactions were started by adding plasma membrane fraction. The reaction was terminated by the addition of 4 ml ice-cold TRIS-HCl buffer and rapid filtration through glass fiber GF/B filters using a Brandel cell harvester. The filters were washed 3 times with ice-cold buffer and oven dried for one hour.
[^3H-] PGE2 (specific activity 180 Ci mmol) was used as the radioligand for EP receptors. [^3H] 17-phenyl PGF2α, was employed for FP receptor binding studies. Binding studies employing EP1, EP2, EP4 and FP receptors were performed in duplicate in at least three separate experiments. A 200 μl assay volume was used. Incubations were for 60 min at 25° C. and were terminated by the addition of 4 ml of ice-cold 50 mM TRIS-HCl, followed by rapid filtration through Whatman GF/B filters and three additional 4 ml washes in a cell harvester (Brandel). Competition studies were performed using a final concentration of 5 nM [^3H]-PGE2, or 5 nM [^3H] 17-phenyl PGF2αand non-specific binding determined with 10^−5M of unlabeled PGE2, or 17-phenyl PGF2α, according to receptor subtype studied.

hTP = molecular target: T3, hTP (Homo sapiens, UniProt P21731); test: FLIPR calcium signal, TP; format: cell-based; settings: HEK-293(EBNA)
T3 construct: expressed in transfected cells
T3 sequence (P21731 1-343): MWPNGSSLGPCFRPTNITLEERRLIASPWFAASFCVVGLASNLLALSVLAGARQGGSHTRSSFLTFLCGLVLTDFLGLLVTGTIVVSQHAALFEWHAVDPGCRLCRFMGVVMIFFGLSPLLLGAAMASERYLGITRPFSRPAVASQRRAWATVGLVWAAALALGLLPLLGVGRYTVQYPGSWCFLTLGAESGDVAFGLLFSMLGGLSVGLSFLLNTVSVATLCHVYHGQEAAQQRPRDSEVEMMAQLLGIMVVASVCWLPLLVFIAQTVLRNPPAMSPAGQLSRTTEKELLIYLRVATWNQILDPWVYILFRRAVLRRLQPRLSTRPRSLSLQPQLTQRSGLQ
Procedure: as §1, §2, §3, §4

hFP = molecular target: T4, hFP (Homo sapiens, UniProt P43088); test: FLIPR calcium signal, FP; format: cell-based; settings: HEK-293(EBNA)
T4 construct: expressed in transfected cells
T4 sequence (P43088 whole entry): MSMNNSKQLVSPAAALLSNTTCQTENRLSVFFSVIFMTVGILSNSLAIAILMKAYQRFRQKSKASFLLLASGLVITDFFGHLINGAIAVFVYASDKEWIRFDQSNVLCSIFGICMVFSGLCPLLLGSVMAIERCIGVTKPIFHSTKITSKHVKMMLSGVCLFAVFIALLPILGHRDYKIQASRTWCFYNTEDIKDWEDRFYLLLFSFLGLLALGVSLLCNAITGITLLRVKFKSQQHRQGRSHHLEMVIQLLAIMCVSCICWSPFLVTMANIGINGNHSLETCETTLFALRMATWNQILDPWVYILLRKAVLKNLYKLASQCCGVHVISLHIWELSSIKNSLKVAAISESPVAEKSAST
Procedure: as §1, §2, §3, §4

T1 sequence (P35408 whole entry): as the sequence (P35408 whole entry) above

Ca2+ Signal-EC50 (nM) EP4 (hEP4/Gqs5)	EC50 (EP2) [nM]	Ki (EP4 receptors) [nM]	Ca2+ Signal-EC50 (nM) TP (hTP)	Ca2+ Signal-EC50 (nM) FP (hFP)	EC50 (hEP4/Gqs5) [nM]	EC50 (hTP; read-out: Ca2+ Signal-EC50 (nM) TP) [nM]	Structure (SMILES)
not active	5260	5580	not active	not active	–	–	O=C(O)CCCCCC[C@@H]1[C@@H](c2ccc(C(O)CCC3CCCCC3)cc2)[C@H](O)C[C@H]1Cl (stereo partly drawn) [Entry 16, 7-{(1R,2S,3R,5R)-5-Chloro-2-[4-(3-cyclohexyl-1-hydroxy-propyl)-phenyl]-3-hydroxy-cyclopentyl}-heptanoic acid]
not active	19	5410	not active	not active	–	–	CCCCCC(O)C(C)(C)c1ccc([C@@H]2[C@@H](C/C=C\CCCC(=O)O)[C@H](Cl)C[C@H]2O)cc1 (stereo partly drawn) [Entry 31, (Z)-7-{(1R,2S,3R,5R)-5-Chloro-3-hydroxy-2-[4-(2-hydroxy-1,1-dimethyl-heptyl)-phenyl]-cyclopentyl}-hept-5-enoic acid]
not active	8	> 10000	not active	not active	–	–	CCCCCC(O)c1ccc([C@@H]2[C@@H](C/C=C\CCCC(=O)O)[C@H](F)C[C@H]2O)cc1 (mixture of isomers) [Entry 8, (Z)-7-{(1R,2S,3R,5R)-5-Fluoro-3-hydroxy-2-[4-(1-hydroxy-hexyl)-phenyl]-cyclopentyl}-hept-5-enoic acid]
–	324	4590	not active	not active	947	–	CCCCCC(O)c1ccc([C@@H]2[C@@H](C/C=C\CCCC(=O)O)[C@@H](Cl)C[C@H]2O)cc1 (stereo partly drawn) [Entry 9, (Z)-7-{(1R,2S,3R,5S)-5-Chloro-3-hydroxy-2-[4-(1-hydroxy-hexyl)-phenyl]-cyclopentyl}-hept-5-enoic acid]
–	125	> 10000	not active	not active	> 10000	–	O=C(O)CCC/C=C\C[C@@H]1[C@@H](c2ccc(C(O)CCc3ccccc3)cc2)[C@H](O)C[C@H]1Cl (stereo partly drawn) [Entry 23, (Z)-7-{(1R,2S,3R,5R)-5-Chloro-3-hydroxy-2-[4-(1-hydroxy-3-phenyl-propyl)-phenyl]-cyclopentyl}-hept-5-enoic acid]
–	38	> 10000	not active	not active	> 10000	–	CCCCCC(O)c1ccc([C@@H]2[C@@H](C/C=C\CCCC(=O)O)[C@H](Cl)C[C@H]2O)cc1 (single isomer, unassigned) [Entry 12]
not active	38	> 10000	not active	not active	–	–	CCCCCC(O)c1cccc([C@@H]2[C@@H](C/C=C\CCCC(=O)O)[C@H](Cl)C[C@H]2O)c1 (stereo partly drawn) [Entry 29, (Z)-7-{(1R,2S,3R,5R)-5-Chloro-3-hydroxy-2-[3-(1-hydroxy-hexyl)-phenyl]-cyclopentyl}-hept-5-enoic acid]
–	3	> 10000	not active	not active	> 10000	–	CCCCCC(O)c1ccc([C@@H]2[C@@H](C/C=C\CCCC(=O)O)[C@H](Cl)C[C@H]2O)cc1 (single isomer, unassigned) [Entry 13]
not active	5	–	–	not active	–	6930	CCCCCC(O)c1ccc([C@@H]2[C@@H](C/C=C\CCCC(=O)O)[C@H](Cl)C[C@@H]2O)cc1 (stereo partly drawn) [Entry 34, (Z)-7-{(1R,2S,3S,5R)-5-Chloro-3-hydroxy-2-[4-(1-hydroxy-hexyl)-phenyl]-cyclopentyl}-hept-5-enoic acid]
–	56	3950	not active	not active	–	–	CCCCCC(O)c1ccc([C@@H]2[C@@H](Cc3cccc(CCC(=O)O)c3)[C@H](Cl)C[C@H]2O)cc1 (stereo partly drawn) [Entry 3, 3-(3-{(1R,2S,3R,5R)-5-Chloro-3-hydroxy-2-[4-(1-hydroxy-hexyl)-phenyl]-cyclopentylmethyl}-phenyl)-propionic acid]
–	1060	–	not active	not active	> 10000	–	CCCCCC(O)c1ccc([C@@H]2[C@@H](CCCc3ncc(C(=O)O)s3)[C@H](Cl)C[C@H]2O)cc1 (stereo partly drawn) [Entry 5, 2-(3-{(1R,2S,3R,5R)-5-Chloro-3-hydroxy-2-[4-(1-hydroxy-hexyl)-phenyl]-cyclopentyl}-propyl)-thiazole-5-carboxylic acid]
not active	10	–	not active	not active	–	–	CCCCC(O)c1ccc([C@@H]2[C@@H](C/C=C\CCCC(=O)O)[C@H](Cl)C[C@H]2O)cc1 (mixture of isomers) [Entry 27, (Z)-7-{(1R,2S,3R,5R)-5-Chloro-3-hydroxy-2-[4-(1-hydroxy-pentyl)-phenyl]-cyclopentyl}-hept-5-enoic acid]
